Measured values from ChEMBL document CHEMBL4014314, “Rational Design of Bisubstrate-Type Analogues as Inhibitors of DNA Methyltransferases in Cancer Cells” (J Med Chem, 2017).

Columns and labels:
[1] = molecular target: T1, DNA (cytosine-5)-methyltransferase 1 (Homo sapiens, UniProt P26358); test: Inhibition of full length His-tagged human DNMT1 using SAM/[methyl-3H]SAM assessed as reduction of methylation in biotinylated hemimethylated DNA duplex at 32 uM after 1 hr by scintillation counting method relative to control
[2] = molecular target: T2, DNA (cytosine-5)-methyltransferase 3A (Homo sapiens, UniProt Q9Y6K1); test: Inhibition of human DNMT3A catalytic domain using AdoMet assessed as reduction of methylation in 5'-biotin/3' 6-carboxyfluorescein labeled DNA duplex at CpG site at 32 uM after 1 hr by fluorescence assay relative to control
[3] = molecular target: T1, DNA (cytosine-5)-methyltransferase 1; test: Inhibition of full length His-tagged human DNMT1 using SAM/[methyl-3H]SAM assessed as reduction of methylation in biotinylated hemimethylated DNA duplex at 100 uM after 1 hr by scintillation counting method relative to control
[4] = molecular target: T2, DNA (cytosine-5)-methyltransferase 3A; test: Inhibition of human DNMT3A catalytic domain using AdoMet assessed as reduction of methylation in 5'-biotin/3' 6-carboxyfluorescein labeled DNA duplex at CpG site at 10 uM after 1 hr by fluorescence assay relative to control

T1 sequence (P26358 whole entry, the tested form may be a part): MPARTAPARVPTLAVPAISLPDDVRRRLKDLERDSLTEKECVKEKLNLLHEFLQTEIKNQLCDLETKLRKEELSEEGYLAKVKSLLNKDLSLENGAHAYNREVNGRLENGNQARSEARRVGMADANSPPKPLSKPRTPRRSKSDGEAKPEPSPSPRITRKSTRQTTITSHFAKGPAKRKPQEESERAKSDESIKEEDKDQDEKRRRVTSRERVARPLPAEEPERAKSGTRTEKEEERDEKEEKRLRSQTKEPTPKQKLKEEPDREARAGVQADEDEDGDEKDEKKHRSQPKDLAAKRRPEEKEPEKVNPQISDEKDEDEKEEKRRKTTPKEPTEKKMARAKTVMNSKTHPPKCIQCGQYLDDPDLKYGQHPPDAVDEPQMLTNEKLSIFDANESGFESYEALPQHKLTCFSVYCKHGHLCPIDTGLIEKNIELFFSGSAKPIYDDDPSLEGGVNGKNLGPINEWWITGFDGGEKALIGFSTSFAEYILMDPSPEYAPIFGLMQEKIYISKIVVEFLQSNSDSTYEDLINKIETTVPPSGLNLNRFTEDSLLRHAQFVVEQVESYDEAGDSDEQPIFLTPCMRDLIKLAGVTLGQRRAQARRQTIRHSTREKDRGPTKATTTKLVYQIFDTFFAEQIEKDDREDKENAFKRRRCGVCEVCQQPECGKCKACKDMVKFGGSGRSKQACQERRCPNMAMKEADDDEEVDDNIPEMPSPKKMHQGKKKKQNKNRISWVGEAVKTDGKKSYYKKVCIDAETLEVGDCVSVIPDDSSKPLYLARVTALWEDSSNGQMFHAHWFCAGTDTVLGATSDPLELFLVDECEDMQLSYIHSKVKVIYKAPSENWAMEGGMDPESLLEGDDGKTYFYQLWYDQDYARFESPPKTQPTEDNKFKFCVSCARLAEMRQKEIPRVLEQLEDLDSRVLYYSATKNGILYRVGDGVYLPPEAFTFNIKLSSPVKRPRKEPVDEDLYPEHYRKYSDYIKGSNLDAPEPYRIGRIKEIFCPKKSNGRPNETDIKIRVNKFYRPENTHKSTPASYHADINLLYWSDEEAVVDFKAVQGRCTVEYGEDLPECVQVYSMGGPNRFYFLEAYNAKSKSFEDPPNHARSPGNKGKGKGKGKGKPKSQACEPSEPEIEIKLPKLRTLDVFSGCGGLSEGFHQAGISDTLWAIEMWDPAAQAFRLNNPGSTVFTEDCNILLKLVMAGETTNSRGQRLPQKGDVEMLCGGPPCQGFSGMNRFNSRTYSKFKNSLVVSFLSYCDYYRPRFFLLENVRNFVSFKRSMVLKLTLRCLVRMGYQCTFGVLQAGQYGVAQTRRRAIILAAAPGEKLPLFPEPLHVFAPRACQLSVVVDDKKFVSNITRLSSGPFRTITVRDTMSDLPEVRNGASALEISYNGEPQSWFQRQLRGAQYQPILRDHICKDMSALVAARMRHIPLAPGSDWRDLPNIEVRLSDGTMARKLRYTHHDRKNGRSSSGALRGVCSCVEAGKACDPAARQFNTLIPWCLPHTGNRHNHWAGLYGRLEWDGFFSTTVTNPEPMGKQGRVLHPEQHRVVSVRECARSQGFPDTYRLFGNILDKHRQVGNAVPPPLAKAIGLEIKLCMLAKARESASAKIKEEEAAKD
T2 sequence (Q9Y6K1 whole entry, looked up, the tested form may be a part): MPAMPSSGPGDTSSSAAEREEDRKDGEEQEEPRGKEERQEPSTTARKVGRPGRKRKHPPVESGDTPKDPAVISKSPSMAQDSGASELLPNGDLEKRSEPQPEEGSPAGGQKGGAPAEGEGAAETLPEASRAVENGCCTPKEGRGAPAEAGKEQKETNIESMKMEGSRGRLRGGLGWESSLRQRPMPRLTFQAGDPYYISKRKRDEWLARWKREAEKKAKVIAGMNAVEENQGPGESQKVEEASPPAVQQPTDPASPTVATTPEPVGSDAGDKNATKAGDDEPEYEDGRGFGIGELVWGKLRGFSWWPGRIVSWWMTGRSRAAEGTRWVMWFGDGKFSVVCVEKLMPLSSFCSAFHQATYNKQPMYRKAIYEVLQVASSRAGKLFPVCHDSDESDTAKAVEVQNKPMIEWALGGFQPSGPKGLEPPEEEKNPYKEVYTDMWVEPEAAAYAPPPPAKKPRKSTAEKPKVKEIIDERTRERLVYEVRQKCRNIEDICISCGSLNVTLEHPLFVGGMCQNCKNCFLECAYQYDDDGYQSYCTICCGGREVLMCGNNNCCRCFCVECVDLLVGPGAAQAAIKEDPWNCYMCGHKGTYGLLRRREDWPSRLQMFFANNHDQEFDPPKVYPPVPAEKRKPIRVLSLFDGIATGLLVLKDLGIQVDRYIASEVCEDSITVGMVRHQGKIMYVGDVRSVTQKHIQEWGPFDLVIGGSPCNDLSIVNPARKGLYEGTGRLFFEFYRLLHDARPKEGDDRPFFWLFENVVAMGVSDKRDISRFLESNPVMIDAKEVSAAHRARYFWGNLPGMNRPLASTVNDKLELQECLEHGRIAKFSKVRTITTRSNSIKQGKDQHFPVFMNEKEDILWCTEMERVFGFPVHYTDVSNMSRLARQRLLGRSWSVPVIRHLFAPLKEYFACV

inhibition [1] [%] | inhibition [2] [%] | inhibition [3] [%] | inhibition [4] [%] | Structure (SMILES)
65 | 93 | 81 | 72 | c1ccc(CN2CCC(Nc3ncnc4cc(OCC5CCN(CCNc6ccnc7ccccc67)CC5)ccc34)CC2)cc1
0 | 68 | 99 | 16 | Nc1ncnc2cc(OCC3CCN(CCNc4ccnc5ccccc45)CC3)ccc12
35 | 80 | 90 | 70 | COc1ccc2c(NCCN3CCC(COc4ccc5c(NCCCc6ccccc6)ncnc5c4)CC3)ccnc2c1
0 | 45 | 12 | 38 | c1ccc(CCCNc2ncnc3cc(OCC4CCN(CCNc5cnc6ccccc6c5)CC4)ccc23)cc1
42 | 100 | 97 | 10 | Clc1ccccc1CCNc1ncnc2cc(OCC3CCN(CCNc4ccnc5ccccc45)CC3)ccc12
0 | 67 | 83 | 37 | c1ccc(CCCNc2ncnc3cc(OCCN4CCN(CCNc5ccnc6ccccc56)CC4)ccc23)cc1
– | 72 | 34 | 47 | c1ccc(CCCNc2ncnc3cc(OCC4CCN(CCNc5ccncc5)CC4)ccc23)cc1
36 | 93 | 81 | 66 | Oc1cc2nccc(NCCN3CCC(COc4ccc5c(NCCCc6ccccc6)ncnc5c4)CC3)c2cc1O
0 | 44 | 11 | 10 | COCn1ccc(NCCN2CCC(COc3ccc4c(NCCCc5ccccc5)ncnc4c3)CC2)nc1=O
0 | 0 | 13 | 0 | FC(F)(F)c1cc(NCCN2CCC(COc3ccc4c(NCCCc5ccccc5)ncnc4c3)CC2)c2ccccc2n1
0 | 83 | 8 | 53 | CC(C)c1ccc(CCNc2ncnc3cc(OCC4CCN(CCNc5ccnc6ccccc56)CC4)ccc23)cc1
59 | 96 | 97 | 68 | Nc1ccc(CCNc2ncnc3cc(OCC4CCN(CCNc5ccnc6ccccc56)CC4)ccc23)cc1
0 | 99 | 90 | 65 | O=c1c2ccc(OCC3CCN(CCNc4ccnc5ccccc45)CC3)cc2ncn1CCCc1ccccc1
22 | 81 | 26 | 43 | c1ccc(CNc2ncnc3cc(OCC4CCN(CCNc5ccnc6ccccc56)CC4)ccc23)cc1
0 | 49 | 0 | 35 | c1ccc(CCCNc2ncnc3cc(OCC4CCN(CCNc5cncc6ccccc56)CC4)ccc23)cc1
59 | 93 | 100 | 0 | NS(=O)(=O)c1ccc(CCNc2ncnc3cc(OCC4CCN(CCNc5ccnc6ccccc56)CC4)ccc23)cc1
21 | 90 | 50 | 74 | Cn1ccc2cc(NCCN3CCC(COc4ccc5c(NCCCc6ccccc6)ncnc5c4)CC3)ccc21
8 | 77 | 15 | 66 | CN(C)c1ccc(NCCN2CCC(COc3ccc4c(NCCCc5ccccc5)ncnc4c3)CC2)c2ccccc12
0 | 85 | 90 | 59 | c1ccc(CCCNc2ncnc3cc(OCCCNCCNc4ccnc5ccccc45)ccc23)cc1

inhibition [1] [%] | inhibition [2] [%] | inhibition [3] [%] | inhibition [4] [%] | Structure (SMILES)
0 | 88 | 71 | 62 | c1ccc(CN2CCN(CCNc3ncnc4cc(OCC5CCN(CCNc6ccnc7ccccc67)CC5)ccc34)CC2)cc1
0 | 74 | 72 | 54 | O=[N+]([O-])c1ccc(CCNc2ncnc3cc(OCC4CCN(CCNc5ccnc6ccccc56)CC4)ccc23)cc1
0 | 60 | 0 | 50 | c1ccc(CCCNc2ncnc3cc(OCC4CCN(CCNc5cccc6ncccc56)CC4)ccc23)cc1
10 | 66 | 57 | 53 | CN(CCN1CCC(COc2ccc3c(NCCCc4ccccc4)ncnc3c2)CC1)c1ccnc2ccccc12
– | 72 | – | 70 | Cc1cc(Nc2ccc(NC(=O)c3ccc(Nc4ccnc5ccccc45)cc3)cc2)nc(N)n1
0 | 65 | 0 | 37 | Nc1ccc(NCCN2CCC(COc3ccc4c(NCCCc5ccccc5)ncnc4c3)CC2)cc1
0 | 69 | 95 | 28 | CCCNc1ncnc2cc(OCC3CCN(CCNc4ccnc5ccccc45)CC3)ccc12
13 | 58 | 55 | 26 | Cc1cc(NCCN2CCC(COc3ccc4c(NCCCc5ccccc5)ncnc4c3)CC2)ccn1
0 | 72 | 59 | 74 | Oc1ccc2c(NCCN3CCC(COc4ccc5c(NCCCc6ccccc6)ncnc5c4)CC3)ccnc2c1
0 | 60 | 16 | 47 | c1ccc(CCCNc2ncnc3cc(OCC4CCN(CCNc5ccc6ncccc6c5)CC4)ccc23)cc1
0 | 0 | 0 | 0 | c1ccc(CCCNc2ncnc3cc(OCC4CCN(CCNc5cccc6cnccc56)CC4)ccc23)cc1
33 | 62 | 79 | 70 | Clc1ccc2c(NCCN3CCC(COc4ccc5c(NCCCc6ccccc6)ncnc5c4)CC3)ccnc2c1
0 | 0 | 48 | 0 | FC(F)(F)c1ccc2c(NCCN3CCC(COc4ccc5c(NCCCc6ccccc6)ncnc5c4)CC3)ccnc2c1
0 | 0 | 0 | 0 | c1ccc(CCCNc2ncnc3cc(OCC4CCN(CCNc5ccc6ccccc6c5)CC4)ccc23)cc1
0 | 82 | 79 | 0 | Fc1ccc2nccc(NCCN3CCC(COc4ccc5c(NCCCc6ccccc6)ncnc5c4)CC3)c2c1
33 | 82 | 99 | 81 | Cc1cc(NCCN2CCC(COc3ccc4c(NCCCc5ccccc5)ncnc4c3)CC2)c2cccc(C)c2n1
0 | 0 | 0 | 0 | COCn1ccc(NCCNCCCOc2ccc3c(NCCCc4ccccc4)ncnc3c2)nc1=O
0 | 0 | 6 | 0 | c1ccc(CCCNc2ncnc3cc(OCC4CCN(c5ccnc6ccccc56)CC4)ccc23)cc1
